Key:
Format in all cases: functional, Artery
Details in all cases: route oral
Rattus norvegicus [1] = assay: Maximum fall in systolic blood pressure at interval of 1 hour over a period of 1-6 hour after dose of 0.3 mg/kg (p.o.) in spontaneous hypertensive rat (SHR); parameters: unit not given here
Rattus norvegicus [2] = assay: Maximum fall in systolic blood pressure at interval of 1 hour over a period of 1-6 hour after dose of 1.0 mg/kg (p.o.) in spontaneous hypertensive rat (SHR); parameters: unit not given here
Rattus norvegicus [3] = assay: Maximum fall in systolic blood pressure at interval of 1 hour over a period of 1-6 hour after dose 1.0 mg/kg (p.o.) in spontaneous hypertensive rat (SHR)
Rattus norvegicus [4] = assay: Maximum fall in systolic blood pressure at interval of 1 hour over a period of 1-6 hour after dose of 10 mg/kg (p.o.) in spontaneous hypertensive rat (SHR)
Rattus norvegicus [5] = assay: Maximum fall in systolic blood pressure at interval of 1 hour over a period of 1-6 hour after dose of 3.0 mg/kg (p.o.) in spontaneous hypertensive rat (SHR)
Rattus norvegicus [6] = assay: Maximum fall in systolic blood pressure at interval of 1 hour over a period of 1-6 hour after dose of 0.1 mg/kg (p.o.) in spontaneous hypertensive rat (SHR)

## CC1(C)Oc2ccc(C#N)cc2C(/N=C(/N)NC#N)C1O (single isomer, unassigned)
Rattus norvegicus [1]
  Max fall in blood pressure: 24
Rattus norvegicus [2]
  Max fall in blood pressure: 48

## C/N=C(/NC#N)NC1c2cc(C#N)ccc2OC(C)(C)C1O (single isomer, unassigned)
Rattus norvegicus [1]
  Max fall in blood pressure: 16
Rattus norvegicus [2]
  Max fall in blood pressure: 41

## CC(C)(C)/N=C(/NC#N)NC1c2cc(C#N)ccc2OC(C)(C)C1O (single isomer, unassigned)
Rattus norvegicus [3]
  Max fall in blood pressure: 8
Rattus norvegicus [4]
  Max fall in blood pressure: 10

## CN/C(=N/C1=CC(C)(C)Oc2ccc(C#N)cc21)NC#N
Rattus norvegicus [2]
  Max fall in blood pressure: 17
Rattus norvegicus [5]
  Max fall in blood pressure: 15

## CN/C(=C\[N+](=O)[O-])NC1c2cc(C#N)ccc2OC(C)(C)C1O (single isomer, unassigned)
Rattus norvegicus [2]
  Max fall in blood pressure: 7
Rattus norvegicus [4]
  Max fall in blood pressure: 12

## C/N=C(/NC#N)NC1c2cnccc2OC(C)(C)[C@H]1O (stereo not given in full)
Rattus norvegicus [2]
  Max fall in blood pressure: 25

## CC1(C)Oc2ccc(C#N)cc2C(N2CCCC2=O)[C@H]1O (stereo not given in full) [CROMAKALIM]
Rattus norvegicus [6]
  Max fall in blood pressure: 13
Rattus norvegicus [1]
  Max fall in blood pressure: 39
Rattus norvegicus [2]
  Max fall in blood pressure: 47

## C/N=C(/NC(C)=O)NC1c2cc(C#N)ccc2OC(C)(C)C1O (single isomer, unassigned)
Rattus norvegicus [2]
  Max fall in blood pressure: 17

## C/N=C(\NC1c2cc(C#N)ccc2OC(C)(C)[C@H]1O)NS(N)(=O)=O (stereo not given in full)
Rattus norvegicus [5]
  Max fall in blood pressure: 14

## CNC(=O)NC1c2cc(C#N)ccc2OC(C)(C)C1O (single isomer, unassigned)
Rattus norvegicus [6]
  Max fall in blood pressure: 14
Rattus norvegicus [1]
  Max fall in blood pressure: 31
Rattus norvegicus [2]
  Max fall in blood pressure: 61

## C/N=C(/NC(N)=O)NC1c2cc(C#N)ccc2OC(C)(C)C1O (single isomer, unassigned)
Rattus norvegicus [5]
  Max fall in blood pressure: 19

Source: ChEMBL document CHEMBL1150508, “Benzopyran potassium channel activators related to cromakalim - amide replacements at position 4” (1993)
